From patent publication US20220296566A1, “COMBINATION PRODUCT CONTAINING LIMONOID COMPOUND AND ALPHA-GLUCOSIDASE INHIBITOR” (ZHEJIANG YANGSHENGTANG INSTITUTE OF NATURAL MEDICATION CO., …, priority 2019, published 2022)

Columns and labels:
db/db mice = test: Serum insulin by Elisa in db/db mice (Example 4); type: in vivo; details: single agent 0.2 g/kg per day by gavage, two weeks, mean ± SD
Description: Effects of limonoid compound, acarbose or combination thereof on blood glucose and insulin in mouse type II diabetes model
In the present embodiment, the limonoid compound was selected from nomilin, deacetylnomilin, nomilin acid, deacetylnomilin acid glycoside, and acarbose single administration group, nomilin single administration group, deacetylnomilin single administration group, nomilin acid single administered group, deacetylnomilin acid glycoside single administration group, and respective combination thereof with acarbose administration groups were set.
Conditions for experimental feeding: as type II diabetes model mice, 6-week-old SPF-grade db/db mice were purchased from the Nanjing Model Biology Institute, and subjected to experimental feeding after 7 days of preliminary feeding. It should be noted that the conditions for raising the mice were as follows: the temperature was 23±1° C., the humidity was 55±10%, the lights were turned on between 7 am and 7 pm (the lights were turned off at other time), and the mice were allowed to freely take in water and feed. The experimental feed was mouse growth-stable feed (GB M2118), and the daily feeding and management of the animals were under the responsibility of the animal security department, which provided the animals with sufficient diet and fresh drinking water daily. […]

STZ mice = test: Blood glucose in STZ mouse pancreatic islet β-cell injury model (Example 1); type: in vivo; details: STZ ICR mice; single agent 0.02 g/kg per day by gavage, two weeks; 1 h after last administration; mean ± SD
Description: Effects of limonoid compound, acarbose or combination thereof on blood glucose in mouse pancreatic islet (3-cell injury model […]
Gavage doses: the gavage dose was 0.02 g/kg per day for the limonin group, the gavage dose was 0.02 g/kg per day for the isolimonic acid group, the gavage dose was 0.02 g/kg per day for the limonin glycoside group, the gavage dose was 0.02 g/kg per day for the isolimonic acid glycoside group, the gavage dose of acarbose was 0.02 g/kg per day for the acarbose group, limonin at a dose of 0.01 g/kg and acarbose at a dose of 0.01 g/kg were simultaneously gavaged per day for the limonin/acarbose combination group, isolimonic acid at a dose of 0.01 g/kg and acarbose at a dose of 0.01 g/kg were simultaneously gavaged per day for the isolimonic acid/acarbose combination group, limonin glycoside at a dose of 0.01 g/kg and acarbose at a dose of 0.01 g/kg were simultaneously gavaged per day for the limonin glycoside/acarbose combination group, isolimonic acid glycoside at a dose of 0.01 g/kg and acarbose at a dose of 0.01 g/kg were simultaneously gavaged per day for the isolimonic acid glycoside/acarbose combination group, the gavage volume was 10 mL/kg, and the normal group and the model group were administrated with 10 mL/kg of distilled water. […] The data were expressed as mean and standard deviation. […]

C[C@H]1O[C@H](O[C@H]2[C@H](O)[C@@H](O)[C@@H](O[C@H]3[C@H](O)[C@@H](O)C(O)O[C@@H]3CO)O[C@@H]2CO)[C@H](O)[C@@H](O)[C@@H]1N[C@H]1C=C(CO)[C@@H](O)[C@H](O)[C@H]1O (some centres unmarked) [Acarbose, acarbose]
Insulin (db/db mice): 8.45 ± 2.21 pg/mL
Blood glucose value (STZ mice): 22.1 ± 3.4 mmol/L
